Active and inactive are the calls of the source.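 Rule for the calls: active = more than half of replicate measurements showing over 20% loss of kinase signal relative to plate controls; inconclusive = some but at most half of replicates over 20% loss; inactive = no replicate over 20% signal loss.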
target: Glycogen synthase kinase-3 alpha (Homo sapiens) (UniProt P49840); assay: concentration-response blocking of human GSK3A – biochemical, luminescence, cell-free homogeneous, retest, dose response (AID 463203); conditions: GSK-3 alpha enzyme, ADP-Glo luminescence, 60 min
Sequence (P49840 whole entry, looked up): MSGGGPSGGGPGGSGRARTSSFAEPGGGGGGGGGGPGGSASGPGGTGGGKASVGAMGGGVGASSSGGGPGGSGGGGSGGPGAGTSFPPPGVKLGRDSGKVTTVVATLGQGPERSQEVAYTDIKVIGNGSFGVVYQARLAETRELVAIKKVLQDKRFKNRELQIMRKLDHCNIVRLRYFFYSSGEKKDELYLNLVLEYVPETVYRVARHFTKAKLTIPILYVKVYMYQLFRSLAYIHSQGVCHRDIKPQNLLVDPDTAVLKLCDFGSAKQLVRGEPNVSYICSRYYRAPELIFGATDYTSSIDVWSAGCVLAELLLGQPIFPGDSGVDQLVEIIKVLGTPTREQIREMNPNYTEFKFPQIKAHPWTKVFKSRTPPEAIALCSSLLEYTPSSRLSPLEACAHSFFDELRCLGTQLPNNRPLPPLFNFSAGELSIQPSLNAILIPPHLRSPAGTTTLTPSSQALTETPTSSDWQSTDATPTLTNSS

SMILES | AC50
N#CC1=C(S)N(c2ccccc2)C(c2ccco2)NC1=O (stereo unspecified) | > 30 µM (inactive)
CCC(CC)c1nnc(NC(=O)CCN2C(=O)c3ccccc3C2=O)s1 | > 30 µM (inactive)
Cc1cc(C)cc(NC(=O)CSCc2nc3c(nnn3Cc3ccc(F)cc3)c(=O)[nH]2)c1 | > 30 µM (inactive)
CN1/C(=C\C=[N+](C)c2ccccc2)C(C)(C)c2ccccc21 | > 30 µM (inactive)
O=c1[nH]nnc2sc3c(c12)CCCC3 | > 30 µM (inactive)
c1ccc2c(CCNc3ncnc4nc[nH]c34)c[nH]c2c1 | 23.1 µM
Nc1ccccc1-c1nc2ccccc2[nH]1 | > 30 µM (inactive)
CC(=O)C(Sc1ccc2nnc(-c3ccncc3)n2n1)C(C)=O | > 30 µM (inactive)
CCc1c(C)c(C#N)c2nc3ccccc3n2c1NCc1ccccn1 | 16.8 µM
COc1ccc(NC(=O)Nc2ccc(F)cc2)c(C)c1 | > 30 µM (inactive)
COCCNc1cc(N)c([N+](=O)[O-])cc1[N+](=O)[O-] | > 30 µM (inactive)
CC(C)NC(=O)Nc1n[nH]c(Nc2ccc(Cl)cc2)n1 | 4.87 µM
CCCCn1c(O)c(C=NCCCn2ccnc2)c(=O)[nH]c1=O | 5.81 µM
CSc1nc(SCCN(C)C)c2c3c(sc2n1)COC(C)(C)C3 | > 30 µM (inactive)
COc1ccccc1N1C(=O)C2C(c3ccccc3F)NN(C(=O)c3ccc(C)cc3)C2C1=O (stereo unspecified) | > 30 µM (inactive)
CCC(C)Sc1nc2c(c(=O)[nH]1)C(c1cccs1)C1=C(CCCC1=O)N2 (stereo unspecified) | > 30 µM (inactive)
CC(C)=CC(=O)NCc1c(Cl)cccc1-n1cccc1 | > 30 µM (inactive)
Cc1cnc(NC(=O)C2CC(=O)N(c3cccc(Cl)c3)C2)s1 (stereo unspecified) | 12.6 µM
COc1cc(/C=C2\S/C(=N/S(=O)(=O)Cc3ccccc3)NC2=O)c([N+](=O)[O-])cc1OC | > 30 µM (inactive)
O=C(CSc1ccccn1)Nc1ccccc1F | > 30 µM (inactive)
CC(C)(C)OC(=O)N1CCC(NC(=O)c2[nH]cnc2C(=O)Nc2ccccc2)CC1 | > 30 µM (inactive)
COc1ccc(OCc2nc(N)nc(Nc3ccccc3)n2)cc1 | > 30 µM (inactive)
Cc1cccc(NC(=O)COC(=O)c2ccccn2)c1 | > 30 µM (inactive)
COc1ccc(OCC(=O)N/N=C/c2ccc(N(C)C)cc2)cc1 | > 30 µM (inactive)
O=c1[nH]cnc(O)c1N=Nc1ccccc1 | 9.87 µM
O=C1OCCC/C1=C\c1ccc2c(c1)OCO2 | 23.3 µM

SMILES | AC50
Cn1c(=O)c2[nH]cnc2n(-c2ccccc2)c1=O | > 30 µM (inactive)
Nc1cccc(C(=O)O)c1 | > 30 µM (inactive)
Nc1cc(C(F)(F)F)ccc1C(=O)O | > 30 µM (inactive)
N#CCC(=O)Nc1sc2c(c1C(N)=O)CCCC2 | 20.2 µM
CC(C)c1nnc(NC(=O)CCN2C(=O)c3ccccc3C2=O)s1 | > 30 µM (inactive)
COc1ccc(C(=O)NCC(=O)N/N=C/C(C)=C/c2ccccc2)cc1OC | > 30 µM (inactive)
O=C1NC(=O)/C(=C/c2ccc(-c3cc(C(=O)O)ccc3Cl)o2)S1 | 13.5 µM
COc1ccc2nc(NC(=O)C3CCCN3S(=O)(=O)c3ccc(C)cc3)sc2c1 (stereo unspecified) | > 30 µM (inactive)
COCCCNC(=O)C(=O)NC1CCCCC1C (stereo unspecified) | > 30 µM (inactive)
CC(=O)N1CCN(c2ccccc2NC(=O)c2ccc(Br)o2)CC1 | 10.3 µM
CCOC(=O)c1ccc(N2CSC3=C(C#N)C(c4ccc(OC)cc4OC)CC(=O)N3C2)cc1 (stereo unspecified) | > 30 µM (inactive)
CCCNC(=O)NC(C)C12CC3CC(CC(C3)C1)C2 (stereo unspecified) | > 30 µM (inactive)
CCOC(=O)c1oc2ccc3c(c2c1C)C(=O)CC1(CCN(C(=O)OCC)CC1)O3 | > 30 µM (inactive)
Oc1cc(O)cc(-c2cc3ccc(O)cc3o2)c1 | > 30 µM (inactive)
COCc1nnc(NC(=O)CCCCCN2C(=O)c3ccccc3C2=O)s1 | > 30 µM (inactive)
Fc1ccc(Nc2ncnc3ccccc23)cc1 | > 30 µM (inactive)
CC(C)=CCc1c(O)cc(O)c2c(=O)c(O[C@@H]3O[C@@H](C)[C@H](O)[C@@H](O)[C@H]3O)c(-c3ccc(O)cc3)oc12 | 19.6 µM
CN1/C(=C/C(=S)NC(=O)C2CCC2)C(C)(C)c2ccccc21 | > 30 µM (inactive)
COC(=O)C1=C(C)N(CC(C)C)C(=O)/C1=C\c1cccs1 | > 30 µM (inactive)
O=C(Nc1ccccc1)c1cc(-n2cnnc2)ccc1Cl | > 30 µM (inactive)
NC(=O)c1c(NC(=O)C(=O)N2CCOCC2)sc2c1CCC2 | > 30 µM (inactive)
COc1ccccc1-n1c(O)c(C=NCc2ccc3c(c2)OCO3)c(=O)[nH]c1=O | 31.3 µM
Cc1nc(NCC2CCCO2)nc2c1C(=O)CC(C)(C)C2 (stereo unspecified) | > 30 µM (inactive)
O=C(Nc1cccnc1)c1scc2c1OCCO2 | 23.5 µM
CCc1nnc(NC(=O)CCc2nc(C3=CCN(C)CC3)no2)s1 | > 30 µM (inactive)
CCOC(=O)c1cnc2c(C(F)(F)F)cccc2c1N1CCN(C)CC1 | > 30 µM (inactive)

SMILES | AC50
CC(C)C(=O)NC(=S)/C=C1/N(C)c2ccccc2C1(C)C | > 30 µM (inactive)
Cc1cccc(NC(=O)CSc2nnc([C@@H](N)Cc3c[nH]c4ccccc34)o2)c1C | > 30 µM (inactive)
CCOc1cc(-c2nc3c(C)cccn3c2NCC2CCCO2)ccc1O (stereo unspecified) | > 30 µM (inactive)
O=C(CSc1ccc2nnc(-c3ccc(F)cc3)n2n1)N1CCCc2ccccc21 | 0.98 µM
Oc1ccc(/C=N/NP(=S)(c2ccccc2)c2ccccc2)cc1O | > 30 µM (inactive)
N#CC1=C2SCN(Cc3ccco3)CN2C(=O)CC1c1ccccc1F (stereo unspecified) | > 30 µM (inactive)
Cc1ccc(S(=O)(=O)N2CCN(C(=O)n3ccnc3)CC2)cc1 | > 30 µM (inactive)
CCOC(=O)C1CCCN(c2c(C(=O)c3ccccc3)cnc3ccccc23)C1 (stereo unspecified) | > 30 µM (inactive)
Cc1nc2sc3c(c2c(=O)o1)CC(C)(C)OC3 | > 30 µM (inactive)
C=CCNc1nc(N)c([N+](=O)[O-])c(N2CCCCCC2)n1 | 29.1 µM
Nc1nonc1-n1nnc(C(=O)N/N=C/c2cccc(Cl)c2)c1-c1cccs1 | 0.614 µM
COc1ccc2nc(NC(=O)CSc3nnc(-c4ccoc4C)n3C)sc2c1 | 4.62 µM
O=c1[nH]c2c(s1)C(c1ccccc1)C1C3CCC(C3)C1S2 (stereo unspecified) | 1.98 µM
COc1ccc2c3c(cccc13)OC2=O | > 30 µM (inactive)
Cc1ccc(S(=O)(=O)Nc2cccc3cccnc23)cc1 | > 30 µM (inactive)
O=C(NC1(C(F)(F)F)NC(=O)N(Cc2cccnc2)C1=O)c1ccccc1 (stereo unspecified) | > 30 µM (inactive)
Cc1nc(S/C(=C/c2ccc(-c3ccc(C(=O)O)cc3)o2)C(=O)O)n[nH]1 | 21.4 µM
CC(=O)c1cccc(NC(=S)NC(=O)CC(C)C)c1 | > 30 µM (inactive)
COc1ccccc1CC(=O)N1CCOCC1 | > 30 µM (inactive)
CCOC(=O)c1ccc(N2CSC3=C(C#N)C(c4cccs4)CC(=O)N3C2)cc1 (stereo unspecified) | > 30 µM (inactive)
CO/N=C/c1ccc(N2CCCC2)c([N+](=O)[O-])c1 | > 30 µM (inactive)
O=c1[nH]c(=O)n(Cc2ccc(F)cc2)c(O)c1C=NCCCn1ccnc1 | > 30 µM (inactive)
COc1cccc(C2CC(=O)Nc3cc(OC)c(OC)c(OC)c32)c1OC (stereo unspecified) | > 30 µM (inactive)
COc1ccc2[nH]c(=O)c3c(c2c1)OC(C)(C)C=C3 | 10.4 µM

Source: PubChem BioAssay AID463203 (Broad Institute, 2010)
